Experiments:
H+/OC antiporter = experiment: DPHM uptake in BMECs after inflammatory cytokine treatment; details: cytokine 0.1–30 ng/ml, 24 h; DPHM 30 μM, 30 s
Brain uptake index = assay type: in vivo, rat; details: data not shown

Compound	Effect on DPHM uptake into BMECs (H+/OC antiporter)	Brain uptake of reference compound, control vs LPS rats (Brain uptake index)
IL-1β: recombinant human interleukin-1β	little effect	
O=C(O)Cc1ccccc1Nc1c(Cl)cccc1Cl [diclofenac]		similar
TNF-α	little effect	

From article PMC8474606 (Brain, Behavior, & Immunity - Health, 2020)
